Assay results: patent publication US12281122B1, “PI3K inhibitors” (Cogent Biosciences, Inc., priority 2023, dated 2025)

Tests used:
[1] = tested on: SKBR3 (PI3Kα-Wild Type) cell line; test: HTRF phospho-AKT(S473) cell assay in SKBR3 cells; assay type: cell-based, human; settings: Homo sapiens, SK-BR-3; HTRF phospho-AKT(S473), SKBR3 (PI3Kα-Wild Type) cells, 2 hours compound incubation, PDGF-BB stimulated
In short: (§1)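 T47D (PI3Kα-H1047R; RPMI, 10% FBS, insulin) and SKBR3 (wild-type PI3Kα; McCoy's 5A, 10% FBS) cells treated 2 h at 37 °C with 12-point 1:3 dilutions, top 5 μM and 10 μM respectively, ≤0.5% DMSO. SKBR3 stimulated with 70 ng/ml PDGF-BB for the last 15 min; lysate pAKT(S473) by HTRF, IC50 from curves.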

[2] = tested on: T47D (PI3Kα-H1047R) cell line; test: HTRF phospho-AKT(S473) cell assay in T47D cells; assay type: cell-based, human; settings: Homo sapiens; HTRF phospho-AKT(S473), T47D (PI3Kα-H1047R) cells, 2 hours compound incubation
In short: as §1

| Structure (SMILES) | IC50 [1] | IC50 [2] |
| --- | --- | --- |
| Cc1cc([C@@H](C)Nc2ccc(Cl)nc2C(=O)NS(C)(=O)=O)c2nc(N3CCC(c4cc(C)on4)CC3)n(C)c(=O)c2c1 [Compound 571, (R)-6-chloro-3-((1-(3,6-dimethyl-2-(4-(5-methylisoxazol-3-yl)piperidin-1-yl)-4-oxo-3,4-dihydroquinazolin-8-yl)ethyl)amino)-N-(methylsulfonyl) picolinamide] | 1000 to 5000 nM | < 250 nM |
| CCn1c(N2C[C@@H]3[C@H](C2)[C@H]3c2cnc(C)cn2)nc2c([C@@H](C)Nc3ccc(Cl)nc3C(=O)NS(C)(=O)=O)cc(C)cc2c1=O [Compound 572, 6-chloro-3-(((R)-1-(3-ethyl-6-methyl-2-((1R,5S,6R)-6-(5-methylpyrazin-2-yl)-3-azabicyclo[3.1.0]hexan-3-yl)-4-oxo-3,4-dihydroquinazolin-8-yl)ethyl)amino)-N-(methylsulfonyl) picolinamide] | 1000 to 5000 nM | < 250 nM |
| Cc1cc([C@@H](C)Nc2ccc(Cl)nc2C(=O)NS(C)(=O)=O)c2nc(N3CCC(c4cn(C(C)C)nn4)CC3)n(C)c(=O)c2c1 [Compound 573, (R)-6-chloro-3-((1-(2-(4-(1-isopropyl-1H-1,2,3-triazol-4-yl)piperidin-1-yl)-3,6-dimethyl-4-oxo-3,4-dihydroquinazolin-8-yl)ethyl)amino)-N-(methylsulfonyl) picolinamide] | 1000 to 5000 nM | < 250 nM |
| Cc1cc([C@@H](C)Nc2ccc(Cl)nc2C(=O)NS(C)(=O)=O)c2nc(N3CCN(c4ccc(F)cn4)CC3)n(C)c(=O)c2c1 [Compound 574, (R)-6-chloro-3-((1-(2-(4-(5-fluoropyridin-2-yl)piperazin-1-yl)-3,6-dimethyl-4-oxo-3,4-dihydroquinazolin-8-yl)ethyl)amino)-N-(methylsulfonyl) picolinamide] | 1000 to 5000 nM | 250 to 500 nM |
| Cc1cc([C@@H](C)Nc2ccc(Cl)nc2C(=O)NS(C)(=O)=O)c2nc(N3CCN(c4nc(C)ncc4F)CC3)n(C)c(=O)c2c1 [Compound 575, (R)-6-chloro-3-((1-(2-(4-(5-fluoro-2-methylpyrimidin-4-yl)piperazin-1-yl)-3,6-dimethyl-4-oxo-3,4-dihydroquinazolin-8-yl)ethyl)amino)-N-(methylsulfonyl) picolinamide] | 1000 to 5000 nM | < 250 nM |

Next, values leading:

| IC50 [1] | IC50 [2] | Structure (SMILES) |
| --- | --- | --- |
| ≥ 5000 nM | 500 to 1000 nM | Cc1cc([C@@H](C)Nc2ccc(Cl)nc2C(=O)NS(C)(=O)=O)c2nc(N3C[C@@H]4C[C@H]3CN4c3cnc(C)nc3)n(C)c(=O)c2c1 [Compound 576, 6-chloro-3-(((R)-1-(3,6-dimethyl-2-((1S,4S)-5-(2-methylpyrimidin-5-yl)-2,5-diazabicyclo[2.2.1]heptan-2-yl)-4-oxo-3,4-dihydroquinazolin-8-yl)ethyl)amino)-N-(methylsulfonyl) picolinamide] |
| ≥ 5000 nM | 250 to 500 nM | Cc1cc([C@@H](C)Nc2ccc(Cl)nc2C(=O)NS(C)(=O)=O)c2nc(N3C[C@H]4C[C@@H]3CN4c3cnc(C)cn3)n(C)c(=O)c2c1 [Compound 577, 6-chloro-3-(((R)-1-(3,6-dimethyl-2-((1R,4R)-5-(5-methylpyrazin-2-yl)-2,5-diazabicyclo[2.2.1]heptan-2-yl)-4-oxo-3,4-dihydroquinazolin-8-yl)ethyl)amino)-N-(methylsulfonyl) picolinamide] |
| 1000 to 5000 nM | < 250 nM | Cc1cc([C@@H](C)Nc2ccc(Cl)nc2C(=O)NS(C)(=O)=O)c2nc(N3C[C@@H]4[C@H](C3)[C@H]4c3cnc(C)nc3C)n(C)c(=O)c2c1 [Compound 578, 6-chloro-3-(((R)-1-(2-((1R,5S,6S)-6-(2,4-dimethylpyrimidin-5-yl)-3-azabicyclo[3.1.0]hexan-3-yl)-3,6-dimethyl-4-oxo-3,4-dihydroquinazolin-8-yl)ethyl)amino)-N-(methylsulfonyl) picolinamide] |
